Source: patent publication EP2835136A1, “Somatostatin Receptor Modulator for the treatment of infertility” (PregLem S.A., priority 2013, dated 2015)
Bridge positions count the residues as written; N and C are the ends. Square brackets hold non-standard residues; d marks the D form. Peptide text beside a SMILES is read from it. Phe(4-Cl) = N[C@@H](Cc1ccc(Cl)cc1)C(=O)O; 2Nal = N[C@@H](Cc1ccc2ccccc2c1)C(=O)O; 4Pal = N[C@@H](Cc1ccncc1)C(=O)O; NMeK = CN[C@@H](CCCCN)C(=O)O

Tests used:
[1] = biological target: hsst5 (Homo sapiens, UniProt P35346); assay: in vitro binding assay, hsst5
[2] = biological target: hsst2 (Homo sapiens, UniProt P30874); assay: in vitro binding assay, hsst2
[3] = biological target: hsst4 (Homo sapiens, UniProt P31391); assay: in vitro binding assay, hsst4
[4] = biological target: hsst3 (Homo sapiens, UniProt P32745); assay: in vitro binding assay, hsst3
[5] = biological target: hsst1 (Homo sapiens, UniProt P30872); assay: in vitro binding assay, hsst1
Chain of hsst1 (P30872 whole entry): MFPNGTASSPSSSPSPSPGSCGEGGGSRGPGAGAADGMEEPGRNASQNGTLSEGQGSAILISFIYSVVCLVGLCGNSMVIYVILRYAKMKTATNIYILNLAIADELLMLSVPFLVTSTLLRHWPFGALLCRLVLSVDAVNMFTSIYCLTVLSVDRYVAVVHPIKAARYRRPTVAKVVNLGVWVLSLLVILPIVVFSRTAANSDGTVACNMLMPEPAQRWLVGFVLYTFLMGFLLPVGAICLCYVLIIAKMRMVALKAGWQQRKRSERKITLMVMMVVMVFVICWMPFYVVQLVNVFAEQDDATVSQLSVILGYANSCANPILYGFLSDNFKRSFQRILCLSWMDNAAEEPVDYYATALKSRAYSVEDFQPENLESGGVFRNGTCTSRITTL

Chain of hsst3 (P32745 whole entry): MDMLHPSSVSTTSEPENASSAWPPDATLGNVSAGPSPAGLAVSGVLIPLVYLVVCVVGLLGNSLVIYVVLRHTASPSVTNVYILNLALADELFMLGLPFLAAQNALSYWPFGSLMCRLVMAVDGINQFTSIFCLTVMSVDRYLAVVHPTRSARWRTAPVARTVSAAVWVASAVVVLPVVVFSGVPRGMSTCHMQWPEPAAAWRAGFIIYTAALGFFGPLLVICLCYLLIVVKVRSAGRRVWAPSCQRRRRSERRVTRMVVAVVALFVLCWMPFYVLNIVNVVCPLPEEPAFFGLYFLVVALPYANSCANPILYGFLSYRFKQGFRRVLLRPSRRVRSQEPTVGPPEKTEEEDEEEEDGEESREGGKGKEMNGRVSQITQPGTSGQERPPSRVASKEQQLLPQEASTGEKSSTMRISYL
Chain of hsst4 (P31391 whole entry): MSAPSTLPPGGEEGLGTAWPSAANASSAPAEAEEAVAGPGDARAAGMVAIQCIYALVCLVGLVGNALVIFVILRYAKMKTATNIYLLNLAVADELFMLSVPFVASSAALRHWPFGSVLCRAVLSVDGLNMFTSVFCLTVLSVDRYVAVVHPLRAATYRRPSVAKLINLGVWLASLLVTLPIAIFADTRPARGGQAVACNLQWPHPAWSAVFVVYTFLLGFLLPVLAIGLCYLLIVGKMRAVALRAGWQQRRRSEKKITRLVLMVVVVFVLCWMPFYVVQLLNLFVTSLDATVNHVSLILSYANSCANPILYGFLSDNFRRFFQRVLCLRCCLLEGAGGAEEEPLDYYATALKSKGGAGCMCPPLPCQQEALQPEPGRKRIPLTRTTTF
Chain of hsst5 (P35346 whole entry): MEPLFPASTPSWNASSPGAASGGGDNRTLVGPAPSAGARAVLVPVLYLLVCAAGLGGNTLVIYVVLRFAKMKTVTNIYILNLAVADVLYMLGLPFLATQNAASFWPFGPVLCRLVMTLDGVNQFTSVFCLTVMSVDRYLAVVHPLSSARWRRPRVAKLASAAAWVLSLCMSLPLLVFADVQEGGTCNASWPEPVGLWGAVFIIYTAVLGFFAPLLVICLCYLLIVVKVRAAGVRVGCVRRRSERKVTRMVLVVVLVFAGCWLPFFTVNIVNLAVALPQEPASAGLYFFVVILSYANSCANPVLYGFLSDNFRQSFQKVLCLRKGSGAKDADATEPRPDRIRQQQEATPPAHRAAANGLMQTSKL
Chain of hsst2 (P30874 whole entry): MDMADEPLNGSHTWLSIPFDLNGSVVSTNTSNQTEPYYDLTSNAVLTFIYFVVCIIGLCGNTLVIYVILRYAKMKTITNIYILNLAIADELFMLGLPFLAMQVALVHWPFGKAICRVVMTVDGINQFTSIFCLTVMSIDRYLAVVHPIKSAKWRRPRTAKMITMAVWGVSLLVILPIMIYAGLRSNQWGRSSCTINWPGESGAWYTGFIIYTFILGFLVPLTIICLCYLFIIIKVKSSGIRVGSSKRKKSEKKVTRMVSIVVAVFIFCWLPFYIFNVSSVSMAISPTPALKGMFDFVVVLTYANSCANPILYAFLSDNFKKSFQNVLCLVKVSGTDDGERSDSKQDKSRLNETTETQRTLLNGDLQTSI

Ki [1] [nM]	Ki [2] [nM]	Ki [3] [nM]	Ki [4] [nM]	Ki [5] [nM]	SMILES
86	6.4	711	44	2760	C[C@@H](O)[C@@H]1NC(=O)[C@H](CCCCN)NC(=O)[C@@H](Cc2c[nH]c3ccccc23)NC(=O)[C@H](Cc2ccncc2)NC(=O)[C@H](NC(=O)[C@@H](N)Cc2ccc(Cl)cc2)CSSC[C@@H](C(=O)N[C@@H](Cc2ccc3ccccc3c2)C(N)=O)NC1=O [Compound "A", Cpa-[D-Cys-4-Pal-D-Trp-Lys-Thr-Cys]-2-Nal-NH2]
6	17.1	1000	66	1000	C[C@@H](O)[C@@H]1NC(=O)[C@H](CCCCN)N(C)C(=O)[C@@H](Cc2c[nH]c3ccccc23)NC(=O)[C@H](Cc2ccncc2)NC(=O)[C@H](NC(=O)[C@@H](N)Cc2ccc(Cl)cc2)CSSC[C@@H](C(=O)N[C@@H](Cc2ccc3ccccc3c2)C(N)=O)NC1=O [Compound "B", Cpa-[D-Cys-4-Pal-D-Trp-N-Me-Lys-Thr-Cys]-2-Nal-NH2] (H-[Phe(4-Cl)][dC][4Pal][dW][NMeK]TC[2Nal]-NH2; disulfide 2-7)
